# Experimental data published in article PMC12317361, “Pharmacological Inhibition of c‐Jun N‐Terminal Kinase Activity Exacerbates Liver Damage in Schistosoma mansoni Infected Mice” (Liver International, 2025).
# pKd: −log10 of the molar value.
# Target: SmJNK (S. mansoni c-Jun N-terminal kinase) (Schistosoma mansoni, UniProt A0A3Q0KT26)
# Test: cellular thermal shift assay (CETSA), isothermal dose-response fingerprint in SmJNK-expressing Sf21 cells
# Format: cell-based
# SmJNK (S. mansoni c-Jun N-terminal kinase), sequence (A0A3Q0KT26 entry or part of it): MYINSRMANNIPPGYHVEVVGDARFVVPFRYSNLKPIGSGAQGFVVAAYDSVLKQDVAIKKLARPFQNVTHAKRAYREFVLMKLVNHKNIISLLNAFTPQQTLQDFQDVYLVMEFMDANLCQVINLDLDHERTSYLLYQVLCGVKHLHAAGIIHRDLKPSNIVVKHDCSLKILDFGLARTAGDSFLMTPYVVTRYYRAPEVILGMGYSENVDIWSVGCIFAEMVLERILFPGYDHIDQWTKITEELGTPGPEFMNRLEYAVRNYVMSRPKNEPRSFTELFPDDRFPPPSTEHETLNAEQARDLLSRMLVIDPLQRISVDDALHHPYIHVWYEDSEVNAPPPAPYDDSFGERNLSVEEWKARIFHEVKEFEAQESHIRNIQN
smiles,measurement,value
Oc1c2ccccc2c2c3c(cccc13)N=N2 [SP600125],pKd,6.19
